In patent publication US10807992B2, “Single enantiomer antiparasitic compounds” (priority 2017, dated 2020):
Read-outs that look alike come from different tables or passages of the source.

Legend:
[1] = system: Aedes aegypti; assay: In vitro ingestion activity against adult mosquitoes (artificial feeding, bovine blood); conditions: read-out: Mortality % R1 + R2
Description: Aedes aegypti (Louisiana Biologicals Inc., New Orleans, La.) eggs were allowed to hatch, close, and age between 3-5 days in an environmental chamber at 26° C., 80% humidity with light/dark cycles.
For mosquito ingestion tests, serial dilutions of the compound stock were performed using DMSO to achieve the desired range for EC50 and EC90 determination. An aliquot of each compound dilution was added to organic bovine blood with a final DMSO concentration of 0.5% and placed in a temperature-controlled artificial feeding container.
(§1) Compounds tested were: the C1 racemate, C1 (R) enantiomer, and the C1 (S) enantiomer. For Trial 3, the C1 (R) enantiomer and the C1 (S) enantiomer were further chiral purified to achieve >99% purity.
For both contact and ingestion assays, five female Aedes aegypti adults were added to each vial or cage. The test vials for contact assays were held in an environmental chamber at 24° C., 80% humidity with light/dark cycles (12 hours each). The cages for mosquito ingestion assays were held in a temperature-controlled artificial feeding apparatus to allow continual access to organic bovine blood containing the desired concentration of compound. Fresh aliquots of compound-spiked bovine blood were provided daily for the duration of the study.
Assessment of mortality/knockdown was performed at various time points between 30 minutes and 24 hours post infestation. Mosquitoes showing no movement or mosquitoes that were knocked down were noted as dead. Results from trial 1 and trial 2 contact assays are shown in Tables 12 and 13, respectively and the results from trial 3 mosquito ingestion assay is shown in table 14.
For the mosquito contact and ingestion assays, each replicate contained 5 mosquitoes. For ease of calculation, the two replicates were added to equal a total of 10 mosquitoes.

[2] = system: Ixodes scapularis; assay: In vitro contact activity against adult ticks (coated vial), I. scapularis; conditions: for mortality at 0.006 µM: Trial 1, dose 0.006 μM; for mortality at 0.024 µM: Trial 1, dose 0.024 μM; for mortality at 0.098 µM: Trial 1, dose 0.098 μM; for mortality at 0.39 µM: Trial 1, dose 0.39 μM; for mortality at 1.56 µM: Trial 1, dose 1.56 μM; for mortality at 6.25 µM: Trial 1, dose 6.25 μM; for mortality at 25 µM: Trial 1, dose 25 μM; for mortality at 100 µM: Trial 1, dose 100 μM
Description: Rhipicephalus sanguineus, Dermacentor variabilis, Amblyomma americanum, (Ecto Services, Inc., Henderson, N.C.) and Ixodes scapularis (Oklahoma State University, Stillwater, Okla.) aged between 2-4 weeks post molt were held in an environmental chamber at 24° C., 80% humidity with 12-hour light/dark cycles.
For tick assays, vial caps were pre-drilled with a single hole in the center of each cap to allow air exchange. A filter paper (Whatman Grade 540 2.1 cm) was placed in the lid of each vial. An aliquot from each compound stock was added to an acetone/triton solution to achieve the desired top doses for the study. Serial dilutions were conducted from the top dose (i.e. 100 ppm) to achieve the desired titration range for EC50 and EC90 determination. For R. sanguineus, D. variabilis, and A. americanum, the final DMSO concentration in each test vial was 0.5%. For I. scapularis, compounds were solubilized directly in an acetone/triton solution due to I. scapularis' sensitivity to DMSO. A 459 μL aliquot of each compound formulation was transferred to a vial containing a Whatman Grade 540 2.1 cm filter paper. Vials were immediately placed on an unheated roller unit to allow for an even coating of the vial walls. After vials were coated, 41 μL of each compound formulation was added to the filter paper embedded in each vial cap. Each cap was allowed to dry. The vials were loosely capped and allowed to dry for a minimum of four hours in a chemical fume hood.
as §1
Ten adult ticks were added to each vial and held at 24° C., 80% humidity with 12-hour light/dark cycles. Adult ticks were assessed for percent mortality at various time points between 2 hours and 48 hours post infestation. Ticks were stimulated on a heated roller unit and evaluated. Ticks showing no movement, or very slow and uncoordinated movement were noted as dead.

Work on `O=C(CC(F)(F)F)N1CC2(C1)OCc1cc(C3=NS[C@](c4cc(Cl)c(F)c(Cl)c4)(C(F)(F)F)C3)ccc12` [C1 (R) enantiomer, (R)-1-[6-[5-(3,5-dichloro-4-fluoro-phenyl)-5-(trifluoromethyl)-4H-isothiazol-3-yl]spiro[1H-isobenzofuran-3,3′-azetidine]-1′-yl]-3,3,3-trifluoro-propan-1-one] yielded a mortality at 0.049 ppm ([1]; 24 h) of 40%, a mortality at 0.2 ppm ([1]; 24 h) of 30% and a mortality at 0.78 ppm ([1]; 24 h) of 75%. For the same compound, the mortality at 3.125 ppm ([1]; 24 h) was 100%, the mortality at 12.5 ppm ([1]; 24 h) was 100% and the mortality at 50 ppm ([1]; 24 h) was 100%. For the same compound, the mortality at 0.049 ppm [1] was 10%, the mortality at 0.2 ppm [1] was 10% and the mortality at 0.78 ppm [1] was 0%. It also gave a mortality at 3.125 ppm [1] of 11.1%, a mortality at 12.5 ppm [1] of 100% and a mortality at 50 ppm [1] of 88.9%. For the same compound, the mortality at 0.006 µM ([2]; 2 h, Rep1) was 0%, the mortality at 0.006 µM ([2]; 2 h, Rep2) was 0% and the mortality at 0.024 µM ([2]; 2 h, Rep1) was 0%. It also gave a mortality at 0.024 µM ([2]; 2 h, Rep2) of 0%, a mortality at 0.098 µM ([2]; 2 h, Rep1) of 0% and a mortality at 0.098 µM ([2]; 2 h, Rep2) of 0%. It also gave a mortality at 0.39 µM ([2]; 2 h, Rep1) of 0%, a mortality at 0.39 µM ([2]; 2 h, Rep2) of 0% and a mortality at 1.56 µM ([2]; 2 h, Rep1) of 0%. It also gave a mortality at 1.56 µM ([2]; 2 h, Rep2) of 0%, a mortality at 6.25 µM ([2]; 2 h, Rep1) of 0% and a mortality at 6.25 µM ([2]; 2 h, Rep2) of 0%. It also gave a mortality at 25 µM ([2]; 2 h, Rep1) of 0%, a mortality at 25 µM ([2]; 2 h, Rep2) of 0% and a mortality at 100 µM ([2]; 2 h, Rep1) of 0%. It also gave a mortality at 100 µM ([2]; 2 h, Rep2) of 0%, a mortality at 0.006 µM ([2]; 6 h, Rep1) of 0% and a mortality at 0.006 µM ([2]; 6 h, Rep2) of 0%. It also gave a mortality at 0.024 µM ([2]; 6 h, Rep1) of 0%, a mortality at 0.024 µM ([2]; 6 h, Rep2) of 0% and a mortality at 0.098 µM ([2]; 6 h, Rep1) of 0%. It also gave a mortality at 0.098 µM ([2]; 6 h, Rep2) of 0%, a mortality at 0.39 µM ([2]; 6 h, Rep1) of 0% and a mortality at 0.39 µM ([2]; 6 h, Rep2) of 0%. The mortality at 1.56 µM ([2]; 6 h, Rep1) was 0%, the mortality at 1.56 µM ([2]; 6 h, Rep2) was 0% and the mortality at 6.25 µM ([2]; 6 h, Rep1) was 0%. For the same compound, the mortality at 6.25 µM ([2]; 6 h, Rep2) was 0%, the mortality at 25 µM ([2]; 6 h, Rep1) was 0% and the mortality at 25 µM ([2]; 6 h, Rep2) was 0%. For the same compound, the mortality at 100 µM ([2]; 6 h, Rep1) was 0%, the mortality at 100 µM ([2]; 6 h, Rep2) was 0% and the mortality at 0.006 µM ([2]; 12 h, Rep1) was 0%. The mortality at 0.006 µM ([2]; 12 h, Rep2) was 0%, the mortality at 0.024 µM ([2]; 12 h, Rep1) was 0% and the mortality at 0.024 µM ([2]; 12 h, Rep2) was 0%. The mortality at 0.098 µM ([2]; 12 h, Rep1) was 0%, the mortality at 0.098 µM ([2]; 12 h, Rep2) was 0% and the mortality at 0.39 µM ([2]; 12 h, Rep1) was 0%. The mortality at 0.39 µM ([2]; 12 h, Rep2) was 0%, the mortality at 1.56 µM ([2]; 12 h, Rep1) was 0% and the mortality at 1.56 µM ([2]; 12 h, Rep2) was 0%. It also gave a mortality at 6.25 µM ([2]; 12 h, Rep1) of 0%, a mortality at 6.25 µM ([2]; 12 h, Rep2) of 0% and a mortality at 25 µM ([2]; 12 h, Rep1) of 0%. The mortality at 25 µM ([2]; 12 h, Rep2) was 0%, the mortality at 100 µM ([2]; 12 h, Rep1) was 0% and the mortality at 100 µM ([2]; 12 h, Rep2) was 0%. It also gave a mortality at 0.006 µM ([2]; 24 h, Rep1) of 0%, a mortality at 0.006 µM ([2]; 24 h, Rep2) of 0% and a mortality at 0.024 µM ([2]; 24 h, Rep1) of 0%. For the same compound, the mortality at 0.024 µM ([2]; 24 h, Rep2) was 0%, the mortality at 0.098 µM ([2]; 24 h, Rep1) was 0% and the mortality at 0.098 µM ([2]; 24 h, Rep2) was 0%. The mortality at 0.39 µM ([2]; 24 h, Rep1) was 0%, the mortality at 0.39 µM ([2]; 24 h, Rep2) was 0% and the mortality at 1.56 µM ([2]; 24 h, Rep1) was 0%. The mortality at 1.56 µM ([2]; 24 h, Rep2) was 0%, the mortality at 6.25 µM ([2]; 24 h, Rep1) was 0% and the mortality at 6.25 µM ([2]; 24 h, Rep2) was 0%. The mortality at 25 µM ([2]; 24 h, Rep1) was 0%, the mortality at 25 µM ([2]; 24 h, Rep2) was 0% and the mortality at 100 µM ([2]; 24 h, Rep1) was 20%. For the same compound, the mortality at 100 µM ([2]; 24 h, Rep2) was 0%, the mortality at 0.006 µM ([2]; 48 h, Rep1) was 0% and the mortality at 0.006 µM ([2]; 48 h, Rep2) was 0%. It also gave a mortality at 0.024 µM ([2]; 48 h, Rep1) of 0%, a mortality at 0.024 µM ([2]; 48 h, Rep2) of 0% and a mortality at 0.098 µM ([2]; 48 h, Rep1) of 0%. The mortality at 0.098 µM ([2]; 48 h, Rep2) was 0%, the mortality at 0.39 µM ([2]; 48 h, Rep1) was 0% and the mortality at 0.39 µM ([2]; 48 h, Rep2) was 0%. It also gave a mortality at 1.56 µM ([2]; 48 h, Rep1) of 0%, a mortality at 1.56 µM ([2]; 48 h, Rep2) of 0% and a mortality at 6.25 µM ([2]; 48 h, Rep1) of 0%. The mortality at 6.25 µM ([2]; 48 h, Rep2) was 0%, the mortality at 25 µM ([2]; 48 h, Rep1) was 10% and the mortality at 25 µM ([2]; 48 h, Rep2) was 30%. For the same compound, the mortality at 100 µM ([2]; 48 h, Rep1) was 50% and the mortality at 100 µM ([2]; 48 h, Rep2) was 30%.
